Test results taken from paper PMC5532363, “Synergistic blending of high-valued heterocycles inhibits growth of Plasmodium falciparum in culture and P. berghei infection in mouse model” (Scientific Reports, 2017).
Where two headings read alike, the source gives them in different places.

Legend:
P. berghei NK65 = assay: Modified Peter's 4-day suppressive test in P. berghei NK65 infected Swiss albino mice; format: in vivo, Plasmodium berghei; conditions: 6h/6u 50 mg/kg, artemisinin 5 mg/kg, s.c. for four consecutive days, n = 6/group
Experimental: The antimalarial effect of two active analogues, 6h and 6u (administered at 50 mg/kg of body weight), was determined in mice infected with P. berghei NK65, a strain, which results in high levels of blood-stage parasitemia. […] However, the 6u analogue had better antimalarial efficacy than the 6h analogue (Fig. 6A). As such, we then evaluated the efficacy of 6u (50 mg/kg) in combination with artemisinin (5 mg/kg of body weight) at reduced dosage in the murine malaria model. […] The median survival times of animals treated with Pht 6u alone, as well in combination with ART were 23 and 27.5 days, respectively (P<0.001).
Figure 6 Antimalarial effect of Pht analogs (6h and 6u) alone and in combination with Artemisinin (6u and ART) on parasitemia and survival in mice infected with P. berghei NK65. Mice were injected with 1 × 10^7 P. berghei infected RBCs. After 48 hours mice were treated with control (PBS: untreated), 6h and 6u (alone), and 6u in combination with artemisinin (all injected subcutaneously) for four consecutive days. The % of parasitemia was determined for the groups on days 5, 8 and 15 by randomly selecting 10 different optical fields on blood smears. (A) Administration of 6h and 6u (alone), and 6 u in combination with ART. Data are the mean ± SEM from six animals per treatment group. (B) Survival in the treatment groups (n = 6/group). (C) Photomicrograph of blood smears of untreated versus treatment groups at day 15 post infection (100x magnification). ART, Artemisinin; *P < 0.05. TEXT PRINTED IN THE PICTURE: (B) Phthalimide 6h: MST- 19.5 | (B) Phthalimide 6u: MST- 23 | (B) Artemisinin: MST- 21.5 | (B) Phthalimide 6u+Artemisinin: MST- 27.5
All animal experiments were performed in female Swiss albino mice (4 to 5 weeks old, weighing 25 to 30 g). The animals were housed under standard controlled conditions at 25 °C with a 12-h light-dark cycle and access to sterilized food pellets and water. All experiments were carried out in accordance with the standard procedures approved by the Animal Ethics Committee of the University of Delhi South Campus, under the Control and Supervision of Experiments on Animals (CPCSEA), Ministry of Social Justice and Empowerment, Government of India. […] The antimalarial activity was carried out in accordance with a slightly modified version of the Peter’s 4-day suppressive test[43]. The animals were assigned to each group (n = 6). Subsequently, after 48 hour of postinfection, the parasitemia level reached 1 to 2%, and all the groups of mice were treated by subcutaneous (s.c.) injection with compounds 6h and 6u alone as well in combination with artemisinin solubilized in DMSO. One group was kept as a control and treated with physiological saline. The efficacy of the treatment was monitored by measuring the parasitemia and survival on days 5, 8 and 15 posttreatments by obtaining thin smears of blood withdrawn from the tail vein of infected mice and staining with 10% Giemsa. The level of parasitemia was determined by counting infected and noninfected erythrocytes from 10 to 15 randomly selected optical fields at 100x magnification and expressed as the number of infected erythrocytes per 100 erythrocytes. The survival of mice was recorded and observed for external symptoms, such as change in body weight, ruffled fur, lethargy and paralysis, until 30 or 40 days posttreatment. The reduction in the level of parasitemia was taken as the index for the curative activities of the drugs. The percentage of parasitemia was calculated manually with the Cell Counting Aid software[44] using the formula (total no. of parasitized RBCs)/(total no. of RBCs) × 100.
For in-vivo experiments, statistical differences between two groups were determined by Student’s t test and between multiple groups using one-way analysis of variance (ANOVA), with P values of <0.05, by GraphPad Prism (version 5.01; GraphPad Software, Inc., CA). […]

[1] = tested on: synchronized Pf3D7 strain cultures (rings, trophozoites); assay: Stage-specificity and parasitemia titres on synchronized Pf3D7 cultures (Giemsa smears); format: cell-based, Plasmodium falciparum; conditions: for effect on ring stage parasitemia: 6 hours post exposure of ring stages; for effect on ring stage parasitemia / effect on mature blood stage parasite titres (parasitemia): Fig. 5; for effect on mature blood stage parasite titres (parasitemia): 16 hours after incubation with trophozoite stage; for effect on progression from trophozoites to schizonts / schizont morphology: concentration = individual IC50, up to 16 hours exposure; for effect on ring-stage growth and morphology: newly synchronized rings, concentration = individual IC50, monitored at 6 and 12 hours
Experimental: Next, we sought to determine stage-specificity of the antiplasmodial activity of the four active analogues (6a, 6h, 6m and 6u) on synchronized Pf3D7 strain cultures at 2% hematocrit and 1% parasitemia, with concentrations corresponding to individual drug IC50. To determine the effect of the compounds on both early and late ring stage parasites, the treatment was conducted on newly synchronized rings for 12 hours, and drug effect on parasite growth and morphology was monitored at 6 and 12 hours after exposure. Similarly, early trophozoites were exposed to each compound and incubated for 16 hours, and monitored at 6 and 16 hours post-exposure. The effect of the compounds on parasite morphology and development was compared in exposed and unexposed drug wells (Figs 3 and 4).
Figure 5 Effect of Pht analogues on parasite growth titres (Note: Graphical description of the inhibitory effect of select analogues on parasite growth titres 6 hours after incubation with ring-stages and 16 hours after drug incubation with trophozoite stage. Parasitemia percentage was derived by counting the number of infected erythrocytes from a total of 2,000 erythrocytes on Giemsa stained thin smears from each experiment. Bar diagrams represent the average of three different experiments).

P. falciparum W2 = assay: Fixed-ratio isobologram drug interaction assay with CQ/DHA, W2; format: cell-based, Plasmodium falciparum; conditions: PfW2
Experimental: (§1) A modified fixed-ratio isobologram method was used to assess interaction between CQ/DHA and Pht analogues. Briefly, a total of 5 solutions containing fixed-ratio mixtures of Pht derivatives with either CQ or DHA were prepared in the following ratios: 1:1, 2:1, 3:2, 2:3, and 1:4. The starting concentrations for ten 2 fold-serial dilutions across the microtiter plate were assigned so that the IC50 of each drug would be in the 5th serial dilution of the plate. Each drug was tested alone and at fixed ratios of its IC50. The assessment of drug interaction was based on the calculation of the fractional inhibitory concentration (FIC) of two drugs in the […]. FIC was calculated for each association by dividing the IC50 of the drug in the combination by the IC50 of the drug alone.

[2] = tested on: P. falciparum 3D7 (Pf3D7), CQ sensitive; assay: SYBR Green I growth inhibition assay, asynchronous P. falciparum 3D7 culture; format: cell-based, Plasmodium falciparum; conditions: SYBR Green, mean of three experiments, NDR / No IC50 = no dose response
From the text: (§2) Antimalarial activity of all the listed Pht analogues was initially assessed on asynchronous cultures of P. falciparum 3D7 (Pf3D7) clone using the SYBR Green assay. […] The mean IC50 values are based on three separate experiments (Table 1).
(§3) The laboratory-adapted P. falciparum strains 3D7 (Africa; CQ sensitive) and W2 (Africa; CQ resistant), were acquired from Malaria Research and Reference Reagent Resource Center (MR4) (Manassas, VA, USA) and maintained with type O +ve erythrocytes suspended in continuous complete culture medium as described. Complete culture media consisted of 10.43 g/litre of RPMI 1640-HEPES supplemented with 10% (vol/vol) human AB serum, 92.6 mg/litre L-glutamine, 50 mg/liter hypoxanthine, 2 g/litre sodium bicarbonate (Sigma-Aldrich, St. Louis, MO). Incubation of cultures was at 37 °C and maintained in a low oxygen atmosphere (5% O2, 5% CO2, 90% N). The levels of parasitemia in the cultures were maintained at between 2 and 10%, with 5% hematocrit. Media was changed after every 24 hours and parasitemia monitored every 48 hours. Synchronous cultures were prepared by sorbitol lysis. Stock solutions of the Pht, Pht analogues, and DHA were prepared in absolute dimethyl sulfoxide (DMSO) while CQ was prepared in distilled water. The prepared drug stock solutions were used immediately or stored at −80 °C for not longer than one month before use. Stock solutions were further diluted in serum free RPMI 1640 media (stock solution solvent final conc. 0.05%) before performing a 2-fold serial dilution to achieve dose ranges of 0.2 µM to 100 µM (Pht and derivatives), 7.8 to 2,000 nM (CQ) and 0.17 to 87.5 nM (DHA). 25 μL of the drug diluents were aliquoted into 96 well plates and used immediately. Alternatively, the stock solutions were diluted in distilled water, 2-fold serial dilution performed on a 96 well plate and allowed to air dry in a laminar flow hood after which dried plates were stored at 4 °C until use. SYBR Green I assay technique with additional modification was used for drug susceptibility testing of the parasites. Parasite cultures of >1% parasitemia were diluted to 1% parasitemia and 2% hematocrit and 200 μL were transferred onto drug pre-dosed plates and incubated at 37 °C for 90 hours, [40]. Drug exposure was terminated by freezing the drug plates at −80 °C for 24 hours after which lysis buffer containing (per liter) 100 mM Tris-HCl, 10 mM EDTA, 0.016% Saponin, 1.6% triton X-100 and 20X SYBR Green I dye was added and the sample incubated for 2 hours in the dark. Relative fluorescence units (RFU) were read using the Perkin Elmer Wallac 1420 fluorescence plate reader, with excitation and emission wavelengths of 485 nm and 535 nm respectively. The readouts values were aligned with corresponding drug doses and analysis performed by Graph-pad Prism software. The drug concentrations (x value) were transformed using X = Log[X] and plotted against the counts (y values) and the data analysed by non-linear regression (sigmoid dose-response/variable slope equation) to yield the IC50.

CQ resistant PfW2 strain = assay: SYBR Green I growth inhibition assay, P. falciparum W2 culture; format: cell-based; conditions: Plasmodium falciparum
From the text: as §2
as §3, with “Drug exposure was terminated by freezing the drug plates at −80 °C for 24 hours after which lysis buffer containing (per liter) 100 mM Tris-HCl, 10 mM EDTA, 0.016% Saponin, 1.6% triton X-100 and 20X SYBR Green I dye was added and the sample incubated for 2 hours in the dark.” left out

P. falciparum 3D7 = assay: Fixed-ratio isobologram drug interaction assay with CQ/DHA, 3D7; format: cell-based, Plasmodium falciparum; conditions: Pf3D7
Experimental: as §1

[3] = MTT cytotoxicity assay in U937 cells; format: cell-based; conditions: human; for selectivity ratio at 24 h: U937 cells (CC50) versus 3D7 parasites (IC50), CC50 U937 / IC50 3D7, SI > 2 = low cytotoxicity, read-out: selectivity index (SI); for CC50 at 24 h: U937 cells, MTT
Experimental: As a final step in the investigational pipeline, we determined the cytotoxic effect of the four active analogues (6a, 6h, 6m and 6u) in U937 cell lines by measuring 50% cytotoxic concentrations (CC50) and calculating selectivity indices (SIs) as a measure of toxicity in human cells.
Cytotoxicity of the 4 select Pht compounds on human cells was evaluated by assessing cell viability of the U937, a human acute monocyte leukemia cell lines by use of the MTT assay. U937 was acquired from American Type Culture Collection (ATCC, Rockville, MD) and maintained in RPMI 1640 medium supplemented with 10% fetal bovine serum, and Penicillin-streptomycin (1% v/v) (Gibco, UK) at 37 °C. Robust U937 cells at a concentration of 80,000 cells/ml were plated into 96-well plates and incubated for 24 hours. Six concentrations of the Pht compounds were added in a two-fold dilution from starting concentration of 50 to 1.56 µM in triplicate and incubated with the cells for 24 hours. This was followed by addition of 10 µL MTT solution (5 mg/mL) into each well, incubated for 4 hour at 37 °C followed by addition of 50 µL DMSO to dissolve the formazan precipitate according to manufacturer’s protocol. Aliquots were drawn from each well and color intensity was measured spectrophotometrically in an ELISA plate reader (Biotek, ELx800) at 540 nm. The cell viability ratio was calculated by the following formula: % cytotoxicity = [Mean OD of test cells] − [Mean OD of control cells]/[Mean OD of control cells] × 100. Viability counts were then plotted against corresponding drug concentrations to yield cytotoxicity (CC50) through non-linear regression (sigmoid dose-response/variable slope equation). Drug CC50 values were then used to define selectivity indices, which is a measure of drug safety in human relative to parasitic cells and was calculated as the ratio of the CC50 value determined on the U937 cells (cytotoxicity) and the IC50 value determined on parasite growth inhibition 3D7 (anti-plasmodial activity). In this study, we set SI > 2 as cut-off as an indicative of low drug cytotoxicity.

[4] = Plasmodium falciparum, 3D7, Pf3D7, asynchronous culture, read-out: IC50 (SE) µg/mL

Structure (SMILES)	median survival time (MST) (P. berghei NK65)	effect on ring stage parasitemia [1]	effect on mature blood stage parasite titres (parasitemia) [1]	effect on progression from trophozoites to schizonts / schizont morphology ([1]; early trophozoites)	effect on ring-stage growth and morphology [1]	interaction when combined with CQ and DHA (P. falciparum W2)	IC50 [2, 4]	IC50 (CQ resistant PfW2 strain)	interaction when combined with CQ and DHA (P. falciparum 3D7)	selectivity ratio at 24 h [3]	CC50 at 24 h [3]	effect on trophozoites ([1]; early trophozoites, concentration = individual IC50, 6 hours after exposure)	IC50 ([2]; Pf3D7, asynchronous culture, read-out: IC50 (SE) µM)	IC50 ([2]; Plasmodium falciparum, 3D7, Pf3D7, asynchronous culture, read-out: IC50 (SE) µM)
C[C@@H]1CC[C@H]2[C@@H](C)C(=O)O[C@@H]3O[C@@]4(C)CC[C@@H]1[C@]32OO4 [Artemisinin, reference compound]	21.5 days	–	–	–	–	–	–	–	–	–	–	–	–	–
CC(C)C[C@H](c1nc2ccccc2n1Cc1cn(-c2ccccc2)nn1)N1C(=O)c2ccccc2C1=O [Compound 6a]	–	reduction in ring stage parasitemia	negligible	did not interfere with development of parasite progression from trophozoites to schizonts	active against ring-stage forms	synergistic activity	0.7 µg/mL	0.7 µM	synergistic activity	1.01 ± 1.5	0.91 ± 0.32 µM	–	–	–
CC(C)[C@H](c1nc2ccccc2n1Cc1cn(-c2ccc(F)cc2)nn1)N1C(=O)c2ccccc2C1=O [Compound 6m]	–	did not affect parasite growth	reduction in parasitemia	schizonts appeared less granular and lacked distinguishable merozoites	did not arrest ring-stage maturation	–	1.8 µg/mL	3.8 µM	–	1.11 ± 1.5	0.78 ± 0.32 µM	trophozoite growth did not appear to be affected	3.5 µM	< 5.14 µM
